Activity calls are given as the source filed them. The calls are words filed in the database; no cut-off is given here.
How the values were obtained:
[1] = system: MGC-803; assay: Cytotoxicity against human MGC803 cells assessed as growth inhibition at 20 uM after 48 hrs by MTT assay relative to control; assay type: functional; details: MGC-803, 48 h
[2] = system: GES1; assay: Cytotoxicity against human GES-1 cells assessed as reduction in cell viability by MTT assay; assay type: cell-based
[3] = system: MGC-803; assay: Cytotoxicity against human MGC803 cells assessed as reduction in cell viability by MTT assay; assay type: functional, cell-based
[4] = Selectivity ratio of IC50 for human GES-1 cells to IC50 for human MGC803 cells; assay type: toxicity; details: GES-1 cells and MGC803 cells, read-out: Ratio IC50
[5] = system: SGC-7901; assay: Cytotoxicity against human SGC7901 cells assessed as reduction in cell viability by MTT assay; assay type: functional, cell-based
[6] = system: HGC-27; assay: Cytotoxicity against human HGC27 cells assessed as reduction in cell viability by MTT assay; assay type: functional, cell-based
[7] = species on record: Homo sapiens; assay: Activation of MAPK signalling in human MGC803 cells assessed as change in p38 phosphorylation at 3 to 6 uM after 24 hrs by Western blot analysis; assay type: cell-based
[8] = system: MGC-803; assay: Induction of apoptosis in human MGC803 cells assessed as necrotic cells at 3 uM after 24 hrs by Annexin-V-FITC/propidium iodide staining based flow cytometry (reference value: 1.5%); assay type: functional
[9] = species on record: Homo sapiens; assay: Activation of MAPK signalling in human MGC803 cells assessed as increase in JNK phosphorylation at 3 to 6 uM after 24 hrs by Western blot analysis; assay type: cell-based
[10] = system: MGC-803; assay: Antiproliferative activity against human MGC803 cells assessed as inhibition of cell division measured after 24 hrs by CFDA-SE staining based flow cytometric analysis; assay type: functional
[11] = species on record: Homo sapiens; assay: Activation of MAPK signalling in human MGC803 cells assessed as decrease in ERK phosphorylation measured after 24 hrs in presence of NAC by Western blot analysis; assay type: cell-based
[12] = system: MGC-803; assay: Cytotoxicity in human MGC803 cells assessed as cell viability at 6 uM after 24 hrs by MTT assay relative to control; assay type: functional; details: MGC-803, 24 h, read-out: Activity
[13] = system: MGC-803; assay: Induction of apoptosis in human MGC803 cells assessed as early apoptotic cells at 3 uM after 24 hrs by Annexin-V-FITC/propidium iodide staining based flow cytometry (reference value: 6.4%); assay type: functional
[14] = system: MGC-803; assay: Induction of apoptosis in human MGC803 cells assessed as viable cells at 6 uM after 24 hrs by Annexin-V-FITC/propidium iodide staining based flow cytometry (reference value: 90.4%); assay type: functional; details: MGC-803, 24 h, read-out: Activity
[15] = system: MGC-803; assay: Induction of apoptosis in human MGC803 cells assessed as late apoptotic cells at 9 uM after 24 hrs by Annexin-V-FITC/propidium iodide staining based flow cytometry (reference value: 1.8%); assay type: functional
[16] = species on record: Homo sapiens; assay: Activation of MAPK signalling in human MGC803 cells assessed as increase in JNK phosphorylation at 6 uM measured after 24 hrs in presence of NAC by Western blot analysis; assay type: cell-based
[17] = system: MGC-803; assay: Effect on Cleaved PARP level in human MGC803 cells assessed decrease in cleaved PARP expression at 6 uM after 24 hrs in presence of NAC by Western blot analysis; assay type: functional, cell-based
[18] = system: MGC-803; assay: Induction of apoptosis in human MGC803 cells assessed as late apoptotic cells at 3 uM after 24 hrs by Annexin-V-FITC/propidium iodide staining based flow cytometry (reference value: 1.8%); assay type: functional
[19] = system: MGC-803; assay: Cytotoxicity against human MGC803 cells assessed as reduction in cell viability at 6 uM after 24 hrs in presence of ROS scavenger N-acetyl-L-cysteine by MTT assay; assay type: functional, cell-based
[20] = system: MGC-803; assay: Effect on Cleaved caspase-9 level in human MGC803 cells assessed decrease in cleaved caspase-9 expression at 6 uM after 24 hrs in presence of NAC by Western blot analysis; assay type: functional, cell-based
[21] = system: MGC-803; assay: Induction of apoptosis in human MGC803 cells assessed as early apoptotic cells at 6 uM after 24 hrs by Annexin-V-FITC/propidium iodide staining based flow cytometry (reference value: 6.4%); assay type: functional
[22] = system: MGC-803; assay: Induction of mitochondrial dysfunction in human MGC803 cells assessed as reduction in mitochondrial potential at 3 to 9 uM after 24 hrs by JC-1 staining based flow cytometry; assay type: functional, cell-based
[23] = system: MGC-803; assay: Induction of apoptosis in human MGC803 cells assessed as increase in cleaved PARP expression up to 9 uM after 24 hrs by Western blot analysis; assay type: functional, cell-based
[24] = system: MGC-803; assay: Induction of apoptosis in human MGC803 cells assessed as viable cells at 3 uM after 24 hrs by Annexin-V-FITC/propidium iodide staining based flow cytometry (reference value: 90.4%); assay type: functional; details: MGC-803, 24 h, read-out: Activity
[25] = system: MGC-803; assay: Induction of apoptosis in human MGC803 cells assessed as early apoptotic cells at 9 uM after 24 hrs by Annexin-V-FITC/propidium iodide staining based flow cytometry (reference value: 6.4%); assay type: functional
[26] = system: MGC-803; assay: Cytotoxicity in human MGC803 cells assessed as cell viability at 6 uM pretreated with pan-caspase inhibitor Z-VAD-fmk for 1 hr followed by compound addition and measured after 24 hrs by MTT assay relative to control; assay type: functional; details: read-out: Activity
[27] = system: MGC-803; assay: Induction of DNA damage in human MGC803 cells assessed as formation of DNA long tailing at 6 uM by comet assay; assay type: functional, cell-based
[28] = system: MGC-803; assay: Induction of apoptosis in human MGC803 cells assessed as necrotic cells at 9 uM after 24 hrs by Annexin-V-FITC/propidium iodide staining based flow cytometry (reference value: 1.5%); assay type: functional
[29] = system: MGC-803; assay: Induction of DNA damage in human MGC803 cells assessed as formation of DNA long tailing at 6 uM in presence of NAC by comet assay; assay type: functional, cell-based
[30] = system: MGC-803; assay: Induction of apoptosis in human MGC803 cells assessed as necrotic cells at 6 uM after 24 hrs by Annexin-V-FITC/propidium iodide staining based flow cytometry (reference value: 1.5%); assay type: functional
[31] = system: MGC-803; assay: Antiproliferative activity against human MGC803 cells assessed as inhibition of cell proliferation preincubated for 16 hrs followed by Edu addition and measured after 8 hrs by Hoechst 33342 staining-based confocal laser scanning microscopic analysis; assay type: functional
[32] = system: MGC-803; assay: Induction of apoptosis in human MGC803 cells assessed as increase in cleaved caspase-3 expression up to 9 uM after 24 hrs by Western blot analysis; assay type: functional, cell-based
[33] = system: MGC-803; assay: Induction of apoptosis in human MGC803 cells assessed as increase in cleaved caspase-9 expression up to 9 uM after 24 hrs by Western blot analysis; assay type: functional, cell-based
[34] = system: MGC-803; assay: Induction of apoptosis in human MGC803 cells assessed as viable cells at 9 uM after 24 hrs by Annexin-V-FITC/propidium iodide staining based flow cytometry (reference value: 90.4%); assay type: functional; details: MGC-803, 24 h, read-out: Activity
[35] = system: MGC-803; assay: Induction of apoptosis in human MGC803 cells assessed as late apoptotic cells at 6 uM after 24 hrs by Annexin-V-FITC/propidium iodide staining based flow cytometry (reference value: 1.8%); assay type: functional
[36] = system: MGC-803; assay: Effect on Cleaved caspase-7 level in human MGC803 cells assessed decrease in cleaved caspase-7 expression at 6 uM after 24 hrs in presence of NAC by Western blot analysis; assay type: functional, cell-based
[37] = species on record: Homo sapiens; assay: Activation of MAPK signalling in human MGC803 cells assessed as decrease in ERK phosphorylation at 3 to 6 uM after 24 hrs by Western blot analysis; assay type: cell-based
[38] = system: MGC-803; assay: Induction of ROS generation in human MGC803 cells after 24 hrs by DCFH-DA dye based flow cytometry; assay type: functional, cell-based
[39] = system: MGC-803; assay: Induction of apoptosis in human MGC803 cells assessed as increase in cleaved caspase-7 expression up to 9 uM after 24 hrs by Western blot analysis; assay type: functional, cell-based

## Cn1cnc2c1c(=O)n(CC(=O)N1CCC(N3CCCCC3)CC1)c(=O)n2C
[1]
  inhibition at 20 µM: 19.8%

## Cn1cnc2c1c(=O)n(CC(=O)O)c(=O)n2C
[1]
  inhibition at 20 µM: 0.8%

## CCCn1c(SCc2ccc(F)cc2)nc2c1c(=O)[nH]c(=O)n2C
[2]
  IC50: 14 µM
[3]
  IC50: 5.4 µM
[4]
  selectivity ratio: 2 to 3
[1]
  inhibition at 20 µM: 86.5%
[5]
  IC50: 15 µM
[6]
  IC50: 9.7 µM

## CN1CCN(C(=O)Cn2c(=O)c3c(ncn3C)n(C)c2=O)CC1
[1]
  inhibition at 20 µM: 8.6%

## CCCn1c(SCc2ccc(C(C)(C)C)cc2)nc2c1c(=O)[nH]c(=O)n2C
[1]
  inhibition at 20 µM: 10.3%

## O=c1[nH]cc(F)c(=O)[nH]1 [FLUOROURACIL]
[3]
  IC50: 14 µM
[5]
  IC50: 21 µM
[6]
  IC50: 18 µM

## Cn1cnc2c1c(=O)n(CC(=O)N1CCOCC1)c(=O)n2C
[1]
  inhibition at 20 µM: 19.9%

## Cn1cnc2c1c(=O)n(CC(=O)N1CCN(C(=O)OC(C)(C)C)CC1)c(=O)n2C
[1]
  inhibition at 20 µM: 20%

## Cn1cnc2c1c(=O)n(CC(=O)N1CCN(Cc3ccc(Cl)cc3)CC1)c(=O)n2C
[1]
  inhibition at 20 µM: 22.5%

## C=CCSc1nc2c(c(=O)[nH]c(=O)n2C)n1CCC
[1]
  inhibition at 20 µM: 5.5%

## Cn1cnc2c1c(=O)n(CC(=O)N1CCN(C(=O)/C=C/c3ccccc3)CC1)c(=O)n2C
[1]
  inhibition at 20 µM: 9.5%

## C=CC(=O)N1CCN(C(=O)Cn2c(=O)c3c(ncn3C)n(C)c2=O)CC1
[1]
  inhibition at 20 µM: 1.3%

## Cc1ccc(S(=O)(=O)N2CCN(C(=O)Cn3c(=O)c4c(ncn4C)n(C)c3=O)CC2)cc1
[1]
  inhibition at 20 µM: 20.1%

## CCCn1c(SCC(=O)Nc2ccc(C)cc2)nc2c1c(=O)[nH]c(=O)n2C
[1]
  inhibition at 20 µM: 42.2%

## CCCn1c(SCc2ccc([N+](=O)[O-])cc2)nc2c1c(=O)[nH]c(=O)n2C
[1]
  inhibition at 20 µM: 19.8%

## Cn1cnc2c1c(=O)n(CC(=O)N1CCN(c3ccccc3)CC1)c(=O)n2C
[1]
  inhibition at 20 µM: 4.6%

## CCCn1c(SCc2ccccc2C)nc2c1c(=O)[nH]c(=O)n2C
[7]
  Activity: Active
[8]
  Activity: 1.5%
[9]
  Activity: Active
[10]
  inhibition: Dose-dependent effect
[2]
  IC50: 13 µM
[11]
  Activity: inactive
[12]
  viability at 6 µM: 66%
[13]
  Activity: 25.4%
[14]
  viability at 6 µM: 55%
[3]
  IC50: 6.6 µM
[15]
  Activity: 32%
[16]
  Activity: inactive
[17]
  Activity: Active
[18]
  Activity: 1.7%
[19]
  Activity: inactive
[20]
  Activity: Active
[21]
  Activity: 41.9%
[4]
  selectivity ratio: 2 to 3
[22]
  Activity: Dose-dependent effect
[23]
  Activity: Active
[24]
  viability at 3 µM: 71.5%
[1]
  inhibition at 20 µM: 88.6%
[25]
  Activity: 44%
[26]
  viability at 6 µM: 93%
[27]
  Activity: Active
[5]
  IC50: 15 µM
[28]
  Activity: 0.9%
[29]
  Activity: inactive
[30]
  Activity: 0.7%
[6]
  IC50: 9.1 µM
[31]
  inhibition: Dose-dependent effect
[32]
  Activity: Active
[33]
  Activity: Active
[34]
  viability at 9 µM: 23.1%
[35]
  Activity: 2.4%
[36]
  Activity: Active
[37]
  Activity: Dose-dependent effect
[38]
  Activity: Dose-dependent effect
[39]
  Activity: Active

## CCCn1c(SCc2cccc(C)c2)nc2c1c(=O)[nH]c(=O)n2C
[2]
  IC50: 16 µM
[3]
  IC50: 7.2 µM
[4]
  selectivity ratio: 2 to 3
[1]
  inhibition at 20 µM: 84.1%
[5]
  IC50: 16 µM
[6]
  IC50: 10 µM

## C#CCN1CCN(C(=O)Cn2c(=O)c3c(ncn3C)n(C)c2=O)CC1
[1]
  inhibition at 20 µM: 14.1%

## Cn1cnc2c1c(=O)n(CC(=O)OC(C)(C)C)c(=O)n2C
[1]
  inhibition at 20 µM: 17.2%

## Cn1cnc2c1c(=O)n(CC(=O)N1CCC(F)(F)CC1)c(=O)n2C
[1]
  inhibition at 20 µM: 11.3%

## CCCn1c(SCc2cccc(OC)c2)nc2c1c(=O)[nH]c(=O)n2C
[1]
  inhibition at 20 µM: 34.2%

## Cn1cnc2c1c(=O)n(CC(=O)N1CCSCC1)c(=O)n2C
[1]
  inhibition at 20 µM: 5.6%

## Cn1cnc2c1c(=O)n(CC(=O)N1CCCCC1)c(=O)n2C
[1]
  inhibition at 20 µM: 16.8%

Reference: ChEMBL document CHEMBL4350964, “Discovery of the theobromine derivative MQS-14 that induces death of MGC-803 cells mainly through ROS-mediated mechanisms” (Eur J Med Chem, 2019)
